Data: US8461305B2, “L-fucose α1→6 specific lectin” (J-Oil Mills, Inc., priority 2008, dated 2013)

Tests used:
[1] = frontal affinity chromatography (FAC), association constant to PA sugar chains without L-fucose; assay type: binding
Method: (§1) The following section will describe a method of calculating an association constant by frontal affinity chromatography (FAC). This method is based on the following principle. […] Then, the elution front end (front) is observed immediately. When there is an affinity with lectin, the elution of the sugar chain is delayed.
(§2) The preparation of a lectin column used in the apparatus is performed in the method as described below. 1. Purified lectin is dissolved in 0.1 to 0.2M of NaHCO3 buffer solution (pH 8.3 to 8.5). 2. The lectin is immobilized, via a lectin primary amino group, a carrier such as NHS activated sepharose. 3. Then, the lectin is blocked by Tris buffer solution including primary amine or ethanolamine for example. 4. Lectin-sepharose is suspended in 10 mM Tris buffer, including 0.8% of NaCl (pH 7.4, TBS). Then, lectin immobilized resin is filled in a miniature column (φ2 mm×10 mm, 31.4 μl). 5. The miniature column in which the lectin immobilized resin is filled is protected by a holder and the lectin column is connected to an FAC automatic analysis apparatus (FAC-1, SHIMADZU CORPORATION).
(§3) Then, the elution of the PA sugar chain from the column is detected by a fluorescence detector (excitation wavelength/fluorescence wavelength: 310 nm/380 nm).
(§4) Based on the detection data, by using the elution front end (Vo) of the sugar chain (PA rhamnose) not interacting with lectin as a reference, the delay (V−Vo) of the elution front end (V) of a sugar chain interacting with lectin is calculated as an interaction strength. Then, based on the following FAC criteria expressions, the association constant (Ka) between the sugar chain and lectin is calculated based on V−Vo and Bt. If the interaction strength (V−Vo value) and the association constant are higher, a higher affinity is caused between lectin and an L-fucose α1→6 sugar chain.
(§5) [In the formula, A means substance used for the elution, Ao means the initial concentration of the substance A, B means a immobilized ligand, V means the elution volume, Vo means the elution front end volume of the substance not interacting with the immobilized ligand B at all, Bt means an effective ligand amount, Kd means a dissociation constant (an inverse of the association constant)].
(§6) Pyridylaminated (PA) sugar chains shown in FIG. 1 and FIG. 2 were used to frontal affinity chromatography (FAC) analysis. PA sugars were purchased from TAKARA BIO INC., SEIKAGAKU BIOBUSINESS CORPORATION, and Masuda Chemical Industries co., LTD. PA sugar were also obtained by pyridylaminating, by GlycoTAG®(TAKARA BIO INC.), an unlabeled sugar chain or a sugar chain obtained by subjecting a sugar chain to enzyme digestion for example.
(§7) Lectin was dissolved in 0.2 M NaHCO3 buffer solution (pH 8.3) including 0.5 M NaCl and coupled to the NHS-activated sepharose (GE Healthcare Bioscience) by following the manufacturer's instructions. Then, lectin immobilized sepharose was suspended in 10 mM Tris buffer (pH 7.4, TBS) including […] and the resultant matter was filled in a miniature column (φ2 mm×10 mm, 31.4 μl).
(§8) Frontal affinity chromatography was performed using FAC automatic analysis apparatus (FAC-1, SHIMADZU CORPORATION). In particular, the above-prepared lectin column was inserted to a stainless steel holder and the holder was connected to FAC-1 apparatus. The flow rate and the column temperature were maintained at 0.125 ml/min and 25 degrees C., respectively. After the miniature column was equilibrated by the TBS, an excessive volume (0.5 ml to 4 ml) of a PA sugar chain (3.75 nM or 7.5 nM) was continuously inputted to the column using an automatic sampling apparatus.
(§9) The fluorescent strength of the eluate of the PA sugar (excitation wavelength of 310 nm and fluorescence wavelength of 380 nm) was monitored to measure the interaction strength [a difference of the front end eluate to the standard oligosaccharide (PA rhamnose): V−V0]. […]

[2] = frontal affinity chromatography (FAC), association constant to PA sugar chains having α1→6 L-fucose; assay type: binding; conditions: 25 degrees C.
Method: as §1, §2, §3, §4, §5, §6, §7, §8, §9

Naematoloma sublateritium lectin [NSL]
binding to sugar chain not having L-fucose ([1]; FAC): not detected at all
association constant Ka ([1]; Sugar chain No. 001, sugar chain not having L-fucose): <1000 M⁻¹
association constant Ka ([1]; Sugar chain No. 002, sugar chain not having L-fucose): <1000 M⁻¹
association constant Ka ([1]; Sugar chain No. 003, sugar chain not having L-fucose): <1000 M⁻¹
association constant Ka ([1]; Sugar chain No. 004, sugar chain not having L-fucose): <1000 M⁻¹
association constant Ka ([1]; Sugar chain No. 005, sugar chain not having L-fucose): <1000 M⁻¹
association constant Ka ([1]; Sugar chain No. 006, sugar chain not having L-fucose): <1000 M⁻¹
association constant Ka ([1]; Sugar chain No. 007, sugar chain not having L-fucose): <1000 M⁻¹
association constant Ka ([1]; Sugar chain No. 008, sugar chain not having L-fucose): <1000 M⁻¹
association constant Ka ([1]; Sugar chain No. 009, sugar chain not having L-fucose): <1000 M⁻¹
association constant Ka ([1]; Sugar chain No. 010, sugar chain not having L-fucose): <1000 M⁻¹
association constant Ka ([1]; Sugar chain No. 011, sugar chain not having L-fucose): <1000 M⁻¹
association constant Ka ([1]; Sugar chain No. 012, sugar chain not having L-fucose): <1000 M⁻¹
association constant Ka ([1]; Sugar chain No. 013, sugar chain not having L-fucose): <1000 M⁻¹
association constant Ka ([1]; Sugar chain No. 014, sugar chain not having L-fucose): <1000 M⁻¹
association constant Ka ([1]; Sugar chain No. 101, sugar chain not having L-fucose): <1000 M⁻¹
association constant Ka ([1]; Sugar chain No. 103, sugar chain not having L-fucose): <1000 M⁻¹
association constant Ka ([1]; Sugar chain No. 104, sugar chain not having L-fucose): <1000 M⁻¹
association constant Ka ([1]; Sugar chain No. 105, sugar chain not having L-fucose): <1000 M⁻¹
association constant Ka ([1]; Sugar chain No. 107, sugar chain not having L-fucose): <1000 M⁻¹
association constant Ka ([1]; Sugar chain No. 108, sugar chain not having L-fucose): <1000 M⁻¹
association constant Ka ([1]; Sugar chain No. 301, sugar chain not having L-fucose): <1000 M⁻¹
association constant Ka ([1]; Sugar chain No. 304, sugar chain not having L-fucose): <1000 M⁻¹
association constant Ka ([1]; Sugar chain No. 305, sugar chain not having L-fucose): <1000 M⁻¹
association constant Ka ([1]; Sugar chain No. 307, sugar chain not having L-fucose): <1000 M⁻¹
association constant Ka ([1]; Sugar chain No. 308, sugar chain not having L-fucose): <1000 M⁻¹
association constant Ka ([1]; Sugar chain No. 313, sugar chain not having L-fucose): <1000 M⁻¹
association constant Ka ([1]; Sugar chain No. 314, sugar chain not having L-fucose): <1000 M⁻¹
association constant Ka ([1]; Sugar chain No. 323, sugar chain not having L-fucose): <1000 M⁻¹
association constant Ka ([1]; Sugar chain No. 501, sugar chain not having L-fucose): <1000 M⁻¹
association constant Ka ([1]; Sugar chain No. 502, sugar chain not having L-fucose): <1000 M⁻¹
association constant Ka ([1]; Sugar chain No. 503, sugar chain not having L-fucose): <1000 M⁻¹
association constant Ka ([1]; Sugar chain No. 504, sugar chain not having L-fucose): <1000 M⁻¹
association constant Ka ([1]; Sugar chain No. 701, sugar chain not having L-fucose): <1000 M⁻¹
association constant Ka ([1]; Sugar chain No. 702, sugar chain not having L-fucose): <1000 M⁻¹
association constant Ka ([1]; Sugar chain No. 703, sugar chain not having L-fucose): <1000 M⁻¹
association constant Ka ([1]; Sugar chain No. 704, sugar chain not having L-fucose): <1000 M⁻¹
association constant Ka ([1]; Sugar chain No. 705, sugar chain not having L-fucose): <1000 M⁻¹
association constant Ka ([1]; Sugar chain No. 706, sugar chain not having L-fucose): <1000 M⁻¹
association constant Ka ([1]; Sugar chain No. 707, sugar chain not having L-fucose): <1000 M⁻¹
association constant Ka ([1]; Sugar chain No. 708, sugar chain not having L-fucose): <1000 M⁻¹
association constant Ka ([1]; Sugar chain No. 709, sugar chain not having L-fucose): <1000 M⁻¹
association constant Ka ([1]; Sugar chain No. 710, sugar chain not having L-fucose): <1000 M⁻¹
association constant Ka ([1]; Sugar chain No. 711, sugar chain not having L-fucose): <1000 M⁻¹
association constant Ka ([1]; Sugar chain No. 712, sugar chain not having L-fucose): <1000 M⁻¹
association constant Ka ([1]; Sugar chain No. 713, sugar chain not having L-fucose): <1000 M⁻¹
association constant Ka ([1]; Sugar chain No. 715, sugar chain not having L-fucose): <1000 M⁻¹
association constant Ka ([1]; Sugar chain No. 716, sugar chain not having L-fucose): <1000 M⁻¹
association constant Ka ([1]; Sugar chain No. 717, sugar chain not having L-fucose): <1000 M⁻¹
association constant Ka ([1]; Sugar chain No. 724, sugar chain not having L-fucose): <1000 M⁻¹
association constant Ka ([1]; Sugar chain No. 725, sugar chain not having L-fucose): <1000 M⁻¹
association constant Ka ([1]; Sugar chain No. 728, sugar chain not having L-fucose): <1000 M⁻¹
association constant Ka ([1]; Sugar chain No. 732, sugar chain not having L-fucose): <1000 M⁻¹
association constant Ka ([1]; Sugar chain No. 733, sugar chain not having L-fucose): <1000 M⁻¹
association constant Ka ([1]; Sugar chain No. 734, sugar chain not having L-fucose): <1000 M⁻¹
association constant Ka ([1]; Sugar chain No. 735, sugar chain not having L-fucose): <1000 M⁻¹
association constant Ka ([1]; Sugar chain No. 736, sugar chain not having L-fucose): <1000 M⁻¹
association constant Ka ([1]; Sugar chain No. 737, sugar chain not having L-fucose): <1000 M⁻¹
association constant Ka ([1]; Sugar chain No. 738, sugar chain not having L-fucose): <1000 M⁻¹
association constant Ka ([1]; Sugar chain No. 901, sugar chain not having L-fucose): <1000 M⁻¹
association constant Ka ([1]; Sugar chain No. 902, sugar chain not having L-fucose): <1000 M⁻¹
association constant Ka ([1]; Sugar chain No. 903, sugar chain not having L-fucose): <1000 M⁻¹
association constant Ka ([1]; Sugar chain No. 905, sugar chain not having L-fucose): <1000 M⁻¹
association constant Ka ([1]; Sugar chain No. 907, sugar chain not having L-fucose): <1000 M⁻¹
association constant Ka ([2]; Sugar chain No. 015): 36000 M⁻¹
association constant Ka ([2]; Sugar chain No. 201): 38000 M⁻¹
association constant Ka ([2]; Sugar chain No. 202): 39000 M⁻¹
association constant Ka ([2]; Sugar chain No. 203): 30000 M⁻¹
association constant Ka ([2]; Sugar chain No. 401): 51000 M⁻¹
association constant Ka ([2]; Sugar chain No. 402): 36000 M⁻¹
association constant Ka ([2]; Sugar chain No. 403): 52000 M⁻¹
association constant Ka ([2]; Sugar chain No. 404): 43000 M⁻¹
association constant Ka ([2]; Sugar chain No. 405): 50000 M⁻¹
association constant Ka ([2]; Sugar chain No. 406): 23000 M⁻¹
association constant Ka ([2]; Sugar chain No. 410): 31000 M⁻¹
association constant Ka ([2]; Sugar chain No. 418): 35000 M⁻¹
association constant Ka ([2]; Sugar chain No. 602): 19000 M⁻¹
